Source: patent publication US11046699B2, “Pyrazolo-pyrimidin-amino-cycloalkyl compounds and their therapeutic uses” (RAPT THERAPEUTICS, INC., priority 2018, dated 2021)

Each compound was assayed against GCN2 (Homo sapiens, UniProt Q9P2K8) (assay: GCN2 enzymatic endpoint assay: phosphorylation of GFP-eIF2α measured by TR-FRET (Lanthascreen)). Details: tested as described in Example 77; compound and/or hydrochloride, dihydrochloride or trifluoroacetic acid salt; read-out: IC 50 Activity.
Assay type: biochemical
Procedure, shortened: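 Reaction started with 2 μM ATP and 80 nM GFP-labelled eIF2α substrate at room temperature, stopped with EDTA after 90 minutes. Phospho-eIF2α detected by terbium-labelled antibody TR-FRET; activity taken as 520 nm (fluorescein) to 495 nm (terbium) emission ratio.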

Sequence of GCN2 (Q9P2K8 whole entry): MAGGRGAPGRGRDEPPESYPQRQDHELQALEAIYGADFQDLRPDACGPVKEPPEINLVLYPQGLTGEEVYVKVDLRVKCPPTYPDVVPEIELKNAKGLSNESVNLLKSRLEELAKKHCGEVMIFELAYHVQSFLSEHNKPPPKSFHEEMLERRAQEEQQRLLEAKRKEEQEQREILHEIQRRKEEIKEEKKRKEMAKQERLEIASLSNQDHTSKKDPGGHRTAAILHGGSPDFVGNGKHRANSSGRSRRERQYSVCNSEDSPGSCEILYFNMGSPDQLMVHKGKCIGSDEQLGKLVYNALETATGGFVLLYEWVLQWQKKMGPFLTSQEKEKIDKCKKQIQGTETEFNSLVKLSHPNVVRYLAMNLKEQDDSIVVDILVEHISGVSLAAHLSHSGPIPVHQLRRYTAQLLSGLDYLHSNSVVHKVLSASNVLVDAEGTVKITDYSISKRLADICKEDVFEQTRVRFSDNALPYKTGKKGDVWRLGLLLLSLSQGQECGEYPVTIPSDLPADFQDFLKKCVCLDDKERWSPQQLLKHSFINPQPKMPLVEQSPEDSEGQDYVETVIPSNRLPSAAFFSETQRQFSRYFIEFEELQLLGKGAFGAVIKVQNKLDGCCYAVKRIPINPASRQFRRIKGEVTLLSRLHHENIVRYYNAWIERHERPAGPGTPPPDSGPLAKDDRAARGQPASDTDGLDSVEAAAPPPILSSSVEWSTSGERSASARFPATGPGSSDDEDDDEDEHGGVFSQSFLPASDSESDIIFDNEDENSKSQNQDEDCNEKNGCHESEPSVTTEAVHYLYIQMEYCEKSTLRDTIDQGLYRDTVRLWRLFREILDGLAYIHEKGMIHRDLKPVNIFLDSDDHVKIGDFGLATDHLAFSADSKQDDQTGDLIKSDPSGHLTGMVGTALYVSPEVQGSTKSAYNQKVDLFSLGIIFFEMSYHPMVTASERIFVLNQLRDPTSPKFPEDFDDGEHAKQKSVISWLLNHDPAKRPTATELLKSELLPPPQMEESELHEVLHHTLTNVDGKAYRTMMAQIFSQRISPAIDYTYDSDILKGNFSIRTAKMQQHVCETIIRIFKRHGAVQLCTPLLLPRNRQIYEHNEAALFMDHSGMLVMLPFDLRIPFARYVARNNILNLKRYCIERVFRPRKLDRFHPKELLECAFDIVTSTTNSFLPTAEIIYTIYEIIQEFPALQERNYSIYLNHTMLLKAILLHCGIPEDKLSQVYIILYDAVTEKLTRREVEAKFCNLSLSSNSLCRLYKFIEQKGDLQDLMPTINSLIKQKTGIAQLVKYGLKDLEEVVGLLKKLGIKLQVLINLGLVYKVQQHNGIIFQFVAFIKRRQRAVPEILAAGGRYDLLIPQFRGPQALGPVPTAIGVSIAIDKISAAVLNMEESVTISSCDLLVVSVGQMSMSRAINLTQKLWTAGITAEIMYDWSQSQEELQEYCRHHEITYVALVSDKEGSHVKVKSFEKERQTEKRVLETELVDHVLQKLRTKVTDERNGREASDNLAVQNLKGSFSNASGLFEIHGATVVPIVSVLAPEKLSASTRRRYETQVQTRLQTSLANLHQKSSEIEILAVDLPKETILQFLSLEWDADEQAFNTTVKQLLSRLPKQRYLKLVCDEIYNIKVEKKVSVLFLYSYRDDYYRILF

IC50	SMILES
0.2 to 0.5 µM	O=S(=O)(NC1CCOCC1)[C@@H]1CC[C@@H](Nc2ncc3c(Br)nn(-c4ccc5ncccc5c4)c3n2)C1 [(1R,3R)-3-((3-bromo-1-(quinolin-6-yl)-1H-pyrazolo[3,4-d]pyrimidin-6-yl)amino)-N-(tetrahydro-2H-pyran-4-yl)cyclopentane-1-sulfonamide]
0.5 to 1 µM	O=S(=O)(NC1CCC1)[C@@H]1CC[C@@H](Nc2ncc3c(Br)nn(-c4ccc5ncccc5c4)c3n2)C1 [(1R,3R)-3-((3-bromo-1-(quinolin-6-yl)-1H-pyrazolo[3,4-d]pyrimidin-6-yl)amino)-N-cyclobutylcyclopentane-1-sulfonamide]
0.025 to 0.2 µM	O=S(=O)(NC1CC1)[C@@H]1CC[C@@H](Nc2ncc3c(Br)nn(-c4ccc5ncccc5c4)c3n2)C1 [(1R,3R)-3-((3-bromo-1-(quinolin-6-yl)-1H-pyrazolo[3,4-d]pyrimidin-6-yl)amino)-N-cyclopropylcyclopentane-1-sulfonamide]
0.2 to 0.5 µM	COCCNC(=O)[C@@H]1CC[C@@H](Nc2ncc3c(Br)nn(-c4ccc5cccnc5c4)c3n2)C1 [(1R,3R)-3-((3-bromo-1-(quinolin-7-yl)-1H-pyrazolo[3,4-d]pyrimidin-6-yl)amino)-N-(2-methoxyethyl)cyclopentane-1-carboxamide]
0.2 to 0.5 µM	CS(=O)(=O)CCNC(=O)[C@@H]1CC[C@@H](Nc2ncc3c(Br)nn(-c4ccc5nccnc5c4)c3n2)C1 [(1R,3R)-3-((3-bromo-1-(quinoxalin-6-yl)-1H-pyrazolo[3,4-d]pyrimidin-6-yl)amino)-N-(2-(methylsulfonyl)ethyl)cyclopentane-1-carboxamide]
0.025 to 0.2 µM	COCCNC(=O)[C@@H]1CC[C@@H](Nc2ncc3c(Br)nn(-c4ccc5nccnc5c4)c3n2)C1 [(1R,3R)-3-((3-bromo-1-(quinoxalin-6-yl)-1H-pyrazolo[3,4-d]pyrimidin-6-yl)amino)-N-(2-methoxyethyl)cyclopentane-1-carboxamide]
0.025 to 0.2 µM	CNC(=O)[C@@H]1CC[C@@H](Nc2ncc3c(Br)nn(-c4ccn5nccc5c4)c3n2)C1 [(1R,3R)-3-[(3-bromo-1-pyrazolo[1,5-a]pyridin-5-yl-pyrazolo[3,4-d]pyrimidin-6-yl)amino]-N-methyl-cyclopentane-carboxamide]
0.025 to 0.2 µM	CNC(=O)[C@]1(CC(F)F)CC[C@@H](Nc2ncc3c(Br)nn(-c4ccc5ncncc5c4)c3n2)C1 [(1R,3R)-3-[(3-bromo-1-quinazolin-6-yl-pyrazolo[3,4-d]pyrimidin-6-yl)amino]-1-(2,2-difluoroethyl)-N-methyl-cyclopentanecarboxamide]
0.025 to 0.2 µM	CNC(=O)[C@]1(C)CC[C@@H](Nc2ncc3c(Br)nn(-c4ccc5ncncc5c4)c3n2)C1 [(1R,3R)-3-[(3-bromo-1-quinazolin-6-yl-pyrazolo[3,4-d]pyrimidin-6-yl)amino]-N,1-dimethyl-cyclopentane-carboxamide]
0.025 to 0.2 µM	CNC(=O)[C@]1(C)CC[C@@H](Nc2ncc3c(Br)nn(-c4ccc5ncsc5c4)c3n2)C1 [(1R,3R)-3-[[1-(1,3-benzothiazol-6-yl)-3-bromo-pyrazolo[3,4-d]pyrimidin-6-yl]amino]-N,1-dimethyl-cyclopentane-carboxamide]
0.025 to 0.2 µM	CNC(=O)[C@]1(C)CC[C@@H](Nc2ncc3c(Br)nn(-c4ccc5nc(NC(C)=O)ncc5c4)c3n2)C1 [(1R,3R)-3-[[1-(2-acetamidoquinazolin-6-yl)-3-bromo-pyrazolo[3,4-d]pyrimidin-6-yl]amino]-N,1-dimethyl-cyclopentane-carboxamide; 2,2,2-trifluoroacetic acid]
0.025 to 0.2 µM	CNC(=O)[C@]1(C)CC[C@@H](Nc2ncc3c(Br)nn(-c4cc(N)c5ncccc5c4)c3n2)C1 [(1R,3R)-3-[[1-(8-amino-6-quinolyl)-3-bromo-pyrazolo[3,4-d]pyrimidin-6-yl]amino]-N,1-dimethyl-cyclopentane-carboxamide]
< 0.025 µM	CNC(=O)[C@]1(COC)CC[C@@H](Nc2ncc3c(I)nn(-c4cc(F)c5ncccc5c4)c3n2)C1 [(1R,3R)-3-[[1-(8-fluoro-6-quinolyl)-3-iodo-pyrazolo[3,4-d]pyrimidin-6-yl]amino]-1-(methoxymethyl)-N-methyl-cyclopentane-carboxamide]
< 0.025 µM	CNC(=O)[C@@H]1CC[C@@H](Nc2ncc3c(I)nn(-c4cc(F)c5ncccc5c4)c3n2)C1 [(1R,3R)-3-[[1-(8-fluoro-6-quinolyl)-3-iodo-pyrazolo[3,4-d]pyrimidin-6-yl]amino]-N-methyl-cyclopentanecarboxamide]
0.025 to 0.2 µM	CNC(=O)[C@]1(C)CC[C@@H](Nc2ncc3c(Br)nn(-c4ccc5c(c4)N(C(=O)C4CNC4)CC5)c3n2)C1 [(1R,3R)-3-[[1-[1-(azetidine-3-carbonyl)indolin-6-yl]-3-bromo-pyrazolo[3,4-d]pyrimidin-6-yl]amino]-N,1-dimethyl-cyclopentanecarboxamide]
0.025 to 0.2 µM	CNC(=O)[C@]1(C)CC[C@@H](Nc2ncc3c(Br)nn(-c4cc(F)c5nc(C(C)(C)N)ccc5c4)c3n2)C1 [(1R,3R)-3-[[1-[2-(1-amino-1-methyl-ethyl)-8-fluoro-6-quinolyl]-3-bromo-pyrazolo[3,4-d]pyrimidin-6-yl]amino]-N,1-dimethyl-cyclopentanecarboxamide]
0.025 to 0.2 µM	CNC(=O)[C@]1(C)CC[C@@H](Nc2ncc3c(Br)nn(-c4ccc5c(c4)CCN(C(=O)C4CNC4)C5)c3n2)C1 [(1R,3R)-3-[[1-[2-(azetidine-3-carbonyl)-3,4-dihydro-1H-isoquinolin-6-yl]-3-bromo-pyrazolo[3,4-d]pyrimidin-6-yl]amino]-N,1-dimethyl-cyclopentanecarboxamide]
0.025 to 0.2 µM	CNC(=O)[C@]1(C)CC[C@@H](Nc2ncc3c(Br)nn(-c4ccc5c(c4)CN(C(=O)C4CNC4)C5)c3n2)C1 [(1R,3R)-3-[[1-[2-(azetidine-3-carbonyl)isoindolin-5-yl]-3-bromo-pyrazolo[3,4-d]pyrimidin-6-yl]amino]-N,1-dimethyl-cyclopentanecarboxamide]
0.025 to 0.2 µM	CNC(=O)[C@]1(C)CC[C@@H](Nc2ncc3c(Br)nn(-c4cc(F)c5ncc(C(C)(C)N)cc5c4)c3n2)C1 [(1R,3R)-3-[[1-[3-(1-amino-1-methyl-ethyl)-8-fluoro-6-quinolyl]-3-bromo-pyrazolo [3,4-d]pyrimidin-6-yl]amino]-N,1-dimethyl-cyclopentanecarboxamide]
0.025 to 0.2 µM	CNC(=O)[C@]1(C)CC[C@@H](Nc2ncc3c(Br)nn(-c4ccc(-c5ncco5)c(C(C)(C)CN)c4)c3n2)C1 [(1R,3R)-3-[[1-[3-(2-amino-1,1-dimethyl-ethyl)-4-oxazol-2-yl-phenyl]-3-bromo-pyrazolo[3,4-d]pyrimidin-6-yl]amino]-N,1-dimethyl-cyclopentanecarboxamide]
0.025 to 0.2 µM	CNC(=O)[C@]1(C)CC[C@@H](Nc2ncc3c(Br)nn(-c4cc(Cl)cc(C(CN)OC)c4)c3n2)C1 (stereo partly drawn) [(1R,3R)-3-[[1-[3-(2-amino-1-methoxy-ethyl)-5-chloro-phenyl]-3-bromo-pyrazolo[3,4-d]pyrimidin-6-yl]amino]-N,1-dimethyl-cyclopentanecarboxamide; 2,2,2-trifluoroacetic acid]
0.025 to 0.2 µM	CNC(=O)[C@]1(C)CC[C@@H](Nc2ncc3c(Br)nn(-c4ccc(-c5nnc(C)s5)c(CC(N)C(F)(F)F)c4)c3n2)C1 (stereo partly drawn) [(1R,3R)-3-[[1-[3-(2-amino-3,3,3-trifluoro-propyl)-4-(5-methyl-1,3,4-thiadiazol-2-yl)phenyl]-3-bromo-pyrazolo[3,4-d]pyrimidin-6-yl]amino]-N,1-dimethyl-cyclopentane-carboxamide]
